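Briefly, cells in 96-well plates were exposed to five compound concentrations for 48 h, and endpoints were estimated by linear interpolation. The concentration for 50% growth inhibition is given as GI50.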 Calls of active or inactive are those of the source. Cut-off read from the data, not from the text of the source: active = GI50 up to about 1.1 µM and inactive = higher.
What was measured:
Test in all cases: NCI tumour cell line growth inhibition, 48 h
HL-60 = tested on: HL-60
DU-145 = tested on: DU-145
OVCAR-5 = tested on: OVCAR-5
T47D = tested on: T47D
MOLT-4 = tested on: MOLT-4
NCI-H522 = tested on: NCI-H522
SNB-75 = tested on: SNB-75
M14 = tested on: M14
SK-OV-3 = tested on: SK-OV-3
MDA-N = tested on: MDA-N
Hs-578T = tested on: Hs-578T
RPMI-8226 = tested on: RPMI-8226
NCI-H23 = tested on: NCI-H23
UO-31 = tested on: UO-31
MDA-MB-435 = tested on: MDA-MB-435
SF-295 = tested on: SF-295
NCI-H226 = tested on: NCI-H226
OVCAR-8 = tested on: OVCAR-8
HCT-116 = tested on: HCT-116
IGROV-1 = tested on: IGROV-1
BT-549 = tested on: BT-549
HCC 2998 = tested on: HCC 2998
NCI-H460 = tested on: NCI-H460
COLO 205 = tested on: COLO 205
PC-3 = tested on: PC-3
RXF 393 = tested on: RXF 393
HCT-15 = tested on: HCT-15
CCRF-CEM = tested on: CCRF-CEM
SK-MEL-2 = tested on: SK-MEL-2
SR = tested on: SR
SNB-19 = tested on: SNB-19
HOP-92 = tested on: HOP-92
SN12C = tested on: SN12C
MCF7 = tested on: MCF7
K562 = tested on: K562
HOP-62 = tested on: HOP-62
OVCAR-3 = tested on: OVCAR-3
SK-MEL-5 = tested on: SK-MEL-5
NCI/ADR-RES = tested on: NCI/ADR-RES
KM12 = tested on: KM12
UACC-62 = tested on: UACC-62
Malme-3M = tested on: Malme-3M
SK-MEL-28 = tested on: SK-MEL-28
CAKI-1 = tested on: CAKI-1
U-251 = tested on: U-251
OVCAR-4 = tested on: OVCAR-4
A549 = tested on: A549
786-0 = tested on: 786-0
ACHN = tested on: ACHN
SF-268 = tested on: SF-268
A498 = tested on: A498
SW-620 = tested on: SW-620
SF-539 = tested on: SF-539
UACC-257 = tested on: UACC-257
LOX IMVI = tested on: LOX IMVI
EKVX = tested on: EKVX
TK-10 = tested on: TK-10
HT-29 = tested on: HT-29

In the case of `CCOC(=O)CCC(NC(=O)OCc1ccccc1)C(=O)NC(CCC(=O)OCC)C(=O)NNC(=O)OC(C)(C)C` (stereo unspecified), the GI50 (HL-60) is reported as > 100 µM (inactive), the GI50 (DU-145) is reported as > 100 µM (inactive) and the GI50 (OVCAR-5) is reported as > 100 µM (inactive). For the same molecule, the GI50 (T47D) was > 100 µM (inactive), the GI50 (MOLT-4) was 28.2 µM (inactive) and the GI50 (NCI-H522) was > 100 µM (inactive). The GI50 (SNB-75) was > 100 µM (inactive), the GI50 (M14) was > 100 µM (inactive) and the GI50 (SK-OV-3) was > 100 µM (inactive). The GI50 (MDA-N) was > 100 µM (inactive), the GI50 (Hs-578T) was > 100 µM (inactive) and the GI50 (RPMI-8226) was > 100 µM (inactive). For the same molecule, the GI50 (NCI-H23) was > 100 µM (inactive), the GI50 (UO-31) was > 100 µM (inactive) and the GI50 (MDA-MB-435) was > 100 µM (inactive). The GI50 (SF-295) was > 100 µM (inactive), the GI50 (NCI-H226) was 36.6 µM (inactive) and the GI50 (OVCAR-8) was > 100 µM (inactive). The GI50 (HCT-116) was > 100 µM (inactive), the GI50 (IGROV-1) was > 100 µM (inactive) and the GI50 (BT-549) was > 100 µM (inactive). The GI50 (HCC 2998) was > 100 µM (inactive), the GI50 (NCI-H460) was > 100 µM (inactive) and the GI50 (COLO 205) was > 100 µM (inactive). For the same molecule, the GI50 (PC-3) was 38.8 µM (inactive), the GI50 (RXF 393) was 18.7 µM (inactive) and the GI50 (HCT-15) was greater than 100 µM. The GI50 (CCRF-CEM) was 38.5 µM (inactive), the GI50 (SK-MEL-2) was > 100 µM (inactive) and the GI50 (SR) was > 100 µM (inactive). The GI50 (SNB-19) was > 100 µM (inactive), the GI50 (HOP-92) was > 100 µM (inactive) and the GI50 (SN12C) was > 100 µM (inactive). The GI50 (MCF7) was > 100 µM (inactive), the GI50 (K562) was > 100 µM (inactive) and the GI50 (HOP-62) was > 100 µM (inactive). The GI50 (OVCAR-3) was > 100 µM (inactive), the GI50 (SK-MEL-5) was > 100 µM (inactive) and the GI50 (NCI/ADR-RES) was > 100 µM (inactive). For the same molecule, the GI50 (KM12) was > 100 µM (inactive), the GI50 (UACC-62) was > 100 µM (inactive) and the GI50 (Malme-3M) was > 100 µM (inactive). For the same molecule, the GI50 (SK-MEL-28) was > 100 µM (inactive), the GI50 (CAKI-1) was > 100 µM (inactive) and the GI50 (U-251) was > 100 µM (inactive).

For `O=c1c2cc(S(=O)(=O)O)ccc2nc(COc2ccc(Oc3ccc(Cl)cc3Cl)cc2)n1-c1ccc(Oc2ccc(Cl)cc2)cc1Cl`, the GI50 (HL-60) was 19.2 µM (inactive), the GI50 (OVCAR-4) was 25.2 µM (inactive) and the GI50 (DU-145) was 38.3 µM (inactive). The GI50 (A549) was 19.3 µM (inactive), the GI50 (OVCAR-5) was 23.2 µM (inactive) and the GI50 (T47D) was 33.1 µM (inactive). The GI50 (786-0) was 20 µM (inactive), the GI50 (ACHN) was 24.5 µM (inactive) and the GI50 (MOLT-4) was 10.4 µM (inactive). The GI50 (NCI-H522) was 20.4 µM (inactive), the GI50 (SNB-75) was 22.6 µM (inactive) and the GI50 (M14) was 19.4 µM (inactive). For the same molecule, the GI50 (SK-OV-3) was 22.6 µM (inactive), the GI50 (MDA-N) was 23.7 µM (inactive) and the GI50 (Hs-578T) was 20 µM (inactive). The GI50 (RPMI-8226) was 21.1 µM (inactive), the GI50 (NCI-H23) was 21.7 µM (inactive) and the GI50 (UO-31) was 13.9 µM (inactive). The GI50 (SF-268) was 12.7 µM (inactive), the GI50 (MDA-MB-435) was 19.7 µM (inactive) and the GI50 (A498) was 23.3 µM (inactive). For the same molecule, the GI50 (SF-295) was 18.3 µM (inactive), the GI50 (SW-620) was 21.5 µM (inactive) and the GI50 (NCI-H226) was 19.5 µM (inactive). For the same molecule, the GI50 (SF-539) was 16.7 µM (inactive), the GI50 (UACC-257) was 25.2 µM (inactive) and the GI50 (OVCAR-8) was 19 µM (inactive). The GI50 (HCT-116) was 20.8 µM (inactive), the GI50 (IGROV-1) was 23.1 µM (inactive) and the GI50 (BT-549) was 17.1 µM (inactive). The GI50 (NCI-H460) was 16.6 µM (inactive), the GI50 (COLO 205) was 17.9 µM (inactive) and the GI50 (PC-3) was 26.7 µM (inactive). For the same molecule, the GI50 (LOX IMVI) was 16.4 µM (inactive), the GI50 (RXF 393) was 0.0752 µM (active) and the GI50 (HCT-15) was 19.9 µM. For the same molecule, the GI50 (EKVX) was 17.6 µM (inactive), the GI50 (CCRF-CEM) was 27.7 µM (inactive) and the GI50 (SK-MEL-2) was 16.5 µM (inactive). For the same molecule, the GI50 (TK-10) was 22 µM (inactive), the GI50 (SR) was 15.2 µM (inactive) and the GI50 (SNB-19) was 26.4 µM (inactive). For the same molecule, the GI50 (HOP-92) was 12.8 µM (inactive), the GI50 (SN12C) was 17.7 µM (inactive) and the GI50 (MCF7) was 20.7 µM (inactive). The GI50 (K562) was 28.2 µM (inactive), the GI50 (HOP-62) was 21.4 µM (inactive) and the GI50 (OVCAR-3) was 18.3 µM (inactive). For the same molecule, the GI50 (SK-MEL-5) was 18.6 µM (inactive), the GI50 (HT-29) was 18.7 µM (inactive) and the GI50 (NCI/ADR-RES) was 18.3 µM (inactive). The GI50 (KM12) was 28.5 µM (inactive), the GI50 (UACC-62) was 17.4 µM (inactive) and the GI50 (Malme-3M) was 28.1 µM (inactive). For the same molecule, the GI50 (CAKI-1) was 30.8 µM (inactive) and the GI50 (U-251) was 16 µM (inactive).
